Laboratory results taken from patent publication US6429326B1, “Benzylidenecamphor-substituted silanes/organosiloxanes for use in photostabilizing sunscreen compositions comprising dibenzoylmethane compounds” (Societe L'Oreal, priority 1998, dated 2002).

| melting point [°C] | Compound |
| --- | --- |
| 47 to 48 | CC12CCC(/C(=C\c3ccc(OCCC[Si](C)(O[Si](C)(C)C)O[Si](C)(C)C)cc3)C1=O)C2(C)C (stereo not drawn) |
| 79 to 80 | COc1cc(/C=C2/C(=O)C3(C)CCC2C3(C)C)ccc1OCCC[Si](C)(C)C (stereo not drawn) |
| 100 to 101 | CC12CCC(/C(=C\c3ccc(OCCC[Si](C)(C)C)cc3)C1=O)C2(C)C (stereo not drawn) |
